What all share (assay type): cell-based, human
The subject of experiment [1] is OPA1 isoforms in HeLa cells or fibroblasts. The experiment can be described thus: Uncoupler experiments: OPA1 isoform pattern by western blot. The settings on record: CCCP 20 μM 6 h. As for the experimental part:
(§1) a, HeLa cells and human fibroblasts were treated with CCCP (20 μM) for 6 h and total cell extracts were subjected to western blotting with OPA1 antibodies. b-d, Cells were treated or not (Control) with CCCP (20 μM) for 30 min, washed, and incubated further with medium lacking CCCP for the indicated time periods or CCCP (20 μM) was left for 6 h. In parallel, these experiments were performed in the presence of cycloheximide (CHX; 175 μg/ml). Cells were stained with MitoTracker (red) and with cytochrome c antibodies (green).
d, OPA1 isoforms by western blot analysis. Extracts of untreated cells (C) and of cells treated for 6 h with CHX alone (+CHX 6 h) were used as controls.
It was further observed whether dissipation of the membrane potential is sufficient to trigger changes in abundance of OPA1 isoforms and fragmentation of mitochondria. […] Proteolytic processing occurs within mitochondria as shown by cellular fractionation experiments (FIG. 10c). This is specific for OPA1 since degradation of other mitochondrial proteins is not observed (FIG. 10c). Fragmentation of mitochondria occurred rapidly within 15 to 30 min after addition of CCCP (FIG. 9bc). Processing of OPA1 took place within the same narrow time frame (FIG. 9d). Impairment of fusion of mitochondria may therefore be due to rapid inactivation of OPA1 by proteolysis of large isoforms. […]

Experiment [2] deals with HeLa cells. The experiment can be described thus: Uncoupler experiments: mitochondrial morphology and cytochrome c by confocal fluorescence microscopy. As for the experimental part:
b, Quantification of mitochondrial morphology in cells: Tubular, at least one mitochondrial tubule of 5 μm or more; intermediate, at least one between 0.5 and 5 μm but none more than 5 μm; fragmented, none of more than 0.5 μm in length. Error bars represent standard deviation of five slides evaluated.
as §1
(§2) Live cells were fluorescently labeled with MitoTracker® Red CMXRos (Molecular probes, USA) for mitochondria or with 4′,6-diamidino-2-phenylindole dihydrochloride (DAPI; Molecular probes, USA) for the nucleus, subsequently fixed, and permeabilised. Immunostaining was carried out with mouse anti-cytochrome c monoclonal antibody (clone 6H2.B4; BD Biosciences) and chicken anti-GFP antibody (Ayes Lab Inc., USA). The following secondary antibodies conjugated to fluorescent dyes were used: Alexa Fluor® 488 anti-mouse IgG (H+L) (Molecular probes, USA), Cy3-conjugated anti-mouse IgG and Fluorescein (FITC)-conjugated anti-chicken IgG (Jackson Immunoresearch, USA). Cells were mounted with Prolong® Gold antifade reagent (Molecular probes, USA). All treatments were done according to the manufacturers' instructions. Mitochondrial morphology was analysed by confocal microscopy using a Zeiss LSM 510 (Carl Zeiss Microscopy, Jena, Germany) equipped with a 63× objective. For all imaging, 512×512 pixel images of single confocal planes were acquired and processed with the Bitplane Imaris 4 software. This technique was particularly employed for FIGS. 5 to 7 and 9 and the corresponding examples.

Experiment [3] relates to OPA1 isoforms in HeLa cells. The experiment can be described thus: Ratios of OPA1 isoforms by western blot densitometry, uncoupler experiment. As for the experimental part: as §1
Cell pellets were lysed in Lämmli-buffer 1× and heated for 5 min at 95° C. Samples equivalent to ˜10^6 cells were loaded on a 10% acrylamid gel (12 cm high×16 cm wide plates separated by 1.5 mm thick spacers). Gels were run for 3.5 hours at constant 30 mA or until the 37 kD band of the BioRad Precision Plus Protein standard reaches the bottom of the gel. The proteins were transferred to a nitrocellulose membrane by semi-dry blotting for 1.5 hours at 200 mA using Tris/glycine buffer. The membrane was incubated in TBS buffer containing 5% non fat milk powder for 30 min. The membrane was then incubated in TBS buffer containing 5% non fat milk powder and affinity purified rabbit OPA1 antibodies (raised against the C-terminal peptide of OPA1: […] (SEQ ID No: 30)) diluted 1:500 for 1 hour. After three rapid washes to remove the primary antibody in excess, the membrane was further incubated for 1 hour in TBS containing 5% non fat milk powder and secondary antibodies anti rabbit conjugated to HRP (horseradish peroxidase) diluted 1:10,000 (BioRad). The membrane was then washed in TBS, once rapidly, and four more times for 5 min each. ECL reagent (enhanced chemoluminescence reagent) was used to reveal the different OPA1 isoform bands on the membrane. Expositions of 1 to 2 min were usually sufficient to detect all OPA1 forms. The compositions of the buffers and gels to be employed are as follows.
From the results of the below described uncoupler experiments using HeLa cells (Example 9; FIG. 9a), the ratio of the relative amount of various OPA1 isoforms was determined. For this purpose, total protein extracts were separated by SDS-PAGE and immunoblotted using an antibody raised against the C-terminus of OPA1. The western blot was scanned and densitometrically analysed using standard imaging software. The intensity of each band was determined and the background intensity was subtracted.
For orientation: In western blotting, separated proteins are transferred to a membrane and probed.

For experiment [4], the system named is OPA1 isoforms in HeLa cells. The experiment can be described thus: Pulse-chase experiment of OPA1 isoforms. The settings on record: 20 μM CCCP for 1 hour during chase. As for the experimental part:
HeLa cells were subjected to radioactive labeling of newly synthesized proteins. After labeling cells were washed, incubated for the indicated time in the absence of radiolabeled amino acids (chase) either in the presence or the absence of CCCP (20 μM). Cells were lysed at indicated times of chase and subjected to immunoprecipitation with antibodies raised against OPA1. Elution fractions were analyzed by digital autoradiography (top panel) and the same membrane was subjected to western blot analysis using OPA1 antibodies (bottom panel). The different OPA1 isoforms are indicated by arrows and named L1-, L2-, S3-, S4- and S5-OPA1.
The large OPA1 isoforms l-OPA1#1 and l-OPA1#2 are converted to the small OPA1 isoforms s-OPA1#3, s-OPA1#4 and/or s-OPA1#5. […] Then cells were washed 3 times with PBS and 1 ml fresh DMEM medium +10% FCS without radioactive methione (chase) was added. Cells were either treated with 20 μM CCCP for 1 hour or not. OPA1 was immunoprecipitated using an antibody raised against the C-terminus of OPA1 and OPA1 was detected by autoradiography and by western-blotting after SDS-PAGE. […] Accordingly, it can be concluded that l-OPA1 isoforms are actually converted to s-OPA1 isofoms, in particular towards s-OPA1#5.

Experiment [5] relates to HeLa cells. The experiment can be described thus: Staurosporine-induced apoptosis: mitochondrial fragmentation, cytochrome c release, OPA1 isoforms. The settings on record: 1 μM staurosporine. As for the experimental part: HeLa cells were treated with 1 μM staurosporine for the indicated time periods, stained with MitoTracker (red) and with cytochrome c antibodies (green).
b, Cells were classified. Tubular, at least one mitochondrial tubule of 5 μm or more; intermediate, at least one between 0.5 and 5 μm but none more than 5 μm; fragmented, none of more than 0.5 μm in length. A representative experiment out of three is shown.
c, Cells were classified for cytochrome c release by immunostaining. Not released, completely colocalised with MitoTracker; intermediate, partly co-localised with MitoTracker; and released, not co-localised with MitoTracker.
d, OPA1 protein isoforms were determined by western blot analysis of total cell extracts. Total cell extracts (C) and isolated mitochondria (M) from untreated HeLa cells were used as controls.
as §2

Experiment [6] has as its system OPA1 processing in HeLa cells. The experiment can be described thus: Protease inhibitors on uncoupler-induced conversion of larger OPA1 isoforms to smaller isoforms. The settings on record: HeLa cells preincubated 10 min with inhibitor, then CCCP 25 min. As for the experimental part:
a, The protease inhibitor o-phenanthroline (o-Phe) and partially DCI (3,4-Dichloroisocoumarin), but not phenylmethylsulphonylfluoride (PMSF) block uncoupler induced conversion of larger OPA1 isoforms to smaller isoforms. HeLa cells were preincubated for 10 min with or without the protease inhibitors at the indicated concentration before CCCP (20 μM) was added. Cells were further incubated for 25 min before they were harvested, lysed in loading buffer, loaded on a SDS-PAGE, and immunoblotted with OPA1 antibodies.

[7] abbreviates: HeLa +CCCP (20 μM, 6 h), densitometry of western blot.

This note sets out measurements from US20100209436A1, “METHOD FOR TREATING DISEASES RELATED TO MITOCHONDRIAL DYSFUNCTION” (priority 2007, published 2010).

Entries after “also recorded” stand apart in the source; their conditions may differ.

In the case of `N#CC(C#N)=NNc1cccc(Cl)c1` [CCCP, carbonyl cyanide 3-chlorophenylhydrazone], the “change of OPA1 isoform pattern” value in experiment [1] is “dramatic shift of OPA1 isoforms towards the smaller isoforms”. Further, the “time to fragmentation of mitochondria after addition” value in the experiment on HeLa cells [2] (CCCP 20 μM) is 15 to 30 min. In the experiment on HeLa cells [2] (CCCP 20 μM 30 min, then washed), the “mitochondrial morphology upon removal of the uncoupler” value is given as “normal mitochondrial morphology was recovered”. For the same compound, the cytochrome c release result with HeLa cells [2] (CCCP treatment) is given as “not accompanied by cytochrome c release”. In addition, in experiment [3] (setting [7]), the “OPA1#3 + #4 + #5/ all bands %” value stood at 93.0%, the “OPA1#3 + #5/ all bands %” value is listed as 64.8%, the “OPA1#3/ all bands %” value is on record as 19.2% and the “OPA1#4/ all bands %” value is recorded as 28.2%. In addition, in experiment [3] (setting [7]), the “OPA1#5/ all bands %” value is recorded as 45.6%. Besides, in experiment [3] (HeLa +CCCP versus HeLa −CCCP), the “fold increase of OPA1#3 + #4 + #5/ all bands” value is recorded as 2.0 fold, the “fold increase of OPA1#3 + #5/ all bands” value was 3.2 fold, the “fold increase of OPA1#3/ all bands” value was 1.9 fold and the “fold increase of OPA1#4/ all bands” value was 1.0 fold. The “fold increase of OPA1#5/ all bands” value in experiment [3] (HeLa +CCCP versus HeLa −CCCP) turned out to be 4.4 fold. Further, the “change of OPA1 isoforms in pulse-chase (autoradiography and western blot)” value in experiment [4] is “shift from the large isoforms to the short isoforms”.

In the case of `C[C@@H]1C[C@@H]([C@H](O)CC2CC(=O)NC(=O)C2)C(=O)[C@@H](C)C1` [cycloheximide], in the experiment with HeLa cells [2] (CHX 175 μg/ml), the “recovery of tubular mitochondrial network and reappearance of large OPA1 isoforms after CCCP removal” value is recorded as “impaired”. For the same compound, the “effect on uncoupler-induced fragmentation and OPA1 processing” value in the experiment with HeLa cells [2] (CHX 175 μg/ml with CCCP 20 μM) is given as “did not interfere”.

Turning to `CN[C@@H]1C[C@H]2O[C@@](C)([C@@H]1OC)n1c3ccccc3c3c4c(c5c6ccccc6n2c5c31)C(=O)NC4` [staurosporine], in the experiment with HeLa cells [5], the “time to fragmentation of mitochondria” value was 2 to 3 h. The “cells that released cytochrome c” value in the experiment on HeLa cells [5] (only after 5-6 h) is on record as “more than 50%”. The “change of OPA1 isoforms” value in the experiment on HeLa cells [5] (western blot) is recorded as “disappearance of the two largest OPA1 isoforms”.

Regarding `c1cnc2c(c1)ccc1cccnc12` [o-phenanthroline], the “block of uncoupler (CCCP 20 μM) induced proteolytic processing of OPA1” value (“block of uncoupler” below) in experiment [6] is “block; also recorded: (at least partially) blocked”; in experiment [6] (listed as ortho-phenanthroline), “inhibited”.

`O=S(=O)(F)Cc1ccccc1` [PMSF, phenylmethylsulphonylfluoride]: the “block of uncoupler” value in experiment [6] is given as “not”.

For `O=c1oc(Cl)c(Cl)c2ccccc12` [DCI, 3,4-Dichloroisocoumarin], in experiment [6], the “block of uncoupler” value is given as “(at least partially) blocked”.
